According to US5491135A (priority 1993, dated 1996):
“And” between values parts separate entries of the source, which are not always exact repeats. Identical values can stand only once.

Test system: HCMV strain AD 169
Assay: Rabbit HCMV ascending dose efficacy and time course recovery (Example 7)
Settings: for Vitreo-retinal score: sum of both eyes
[1] = day 4, PALA 50 or DHPG 10 mg/kg/d
[2] = day 5, PALA 75 mg/kg/d, with or without steroid
[3] = day 5, PALA 50 or DHPG 10 mg/kg/d
[4] = day 6, PALA 75 mg/kg/d, with or without steroid
[5] = day 6, PALA 50 or DHPG 10 mg/kg/d
[6] = day 7, PALA 75 mg/kg/d, with or without steroid
[7] = day 12, PALA 75 mg/kg/d, with or without steroid
[8] = day 12, PALA 50 or DHPG 10 mg/kg/d

Compound: O=C(O)C[C@H](NC(=O)CP(=O)(O)O)C(=O)O [PALA]
- HCMV recovery frequency (day 4, PALA 100 mg/kg/d): 3/4
- Optic neuritis score (ONH) (day 4, PALA 100 mg/kg/d): 6.0 and 5.0
- Vitreo-retinal score (day 4, PALA 100 mg/kg/d): 4.5 and 3.75
- HCMV Recovered, OD [1]: - and +
- HCMV Recovered, OS [1]: -
- HCMV Titer, OD [1]: 10^4 pfu
- HCMV recovery frequency [1]: 1/4
- Optic neuritis score (ONH) [1]: 2.0 and 3.0
- Average HCMV titer [2]: 10^2 pfu
- HCMV Recovered, OD [2]: -
- HCMV Recovered, OS [2]: - and +
- HCMV Titer, OS [2]: 10^2 pfu
- HCMV recovery frequency [2]: 1/4
- Optic neuritis score (ONH) [2]: 3.0 and 5.0
- Vitreo-retinal score [2]: 1.75 and 3.5
- Average HCMV titer (day 5, PALA 100 mg/kg/d): 10^2 pfu
- HCMV Recovered, OD (day 5, PALA 100 mg/kg/d): -
- HCMV Recovered, OS (day 5, PALA 100 mg/kg/d): + and -
- HCMV Titer, OS (day 5, PALA 100 mg/kg/d): 10^2 pfu
- HCMV recovery frequency (day 5, PALA 100 mg/kg/d): 1/4
- HCMV titer (day 5, PALA 100 mg/kg/d): 10^2 pfu/ml
- Optic neuritis score (ONH) (day 5, PALA 100 mg/kg/d): 5.0 and 4.0
- Vitreo-retinal score (day 5, PALA 100 mg/kg/d): 3.5 and 3.0
- Average HCMV titer [3]: 10^1 pfu
- HCMV Recovered, OD [3]: - and +
- HCMV Recovered, OS [3]: + and -
- HCMV Titer, OD [3]: 10^2 pfu
- HCMV Titer, OS [3]: 10^2 pfu
- HCMV recovery frequency [3]: 2/4
- Optic neuritis score (ONH) [3]: 1.0
- Vitreo-retinal score [3]: 0.65 and 1.25
- HCMV Titer, OS (day 6, PALA 50 mg/kg/d): 10^3 pfu and 10^2 pfu
- HCMV titer (day 6, PALA 50 mg/kg/d): 10^2 pfu/ml
- HCMV Recovered, OD [4]: + and -
- HCMV Recovered, OS [4]: + and -
- HCMV Titer, OD [4]: 10^3 pfu
- HCMV Titer, OS [4]: 10^4 pfu
- HCMV recovery frequency [4]: 3/4 and 2/4
- Optic neuritis score (ONH) [4]: 2.0
- HCMV Recovered, OD (day 6, PALA 100 mg/kg/d): +
- HCMV Recovered, OS (day 6, PALA 100 mg/kg/d): - and +
- HCMV Titer, OD (day 6, PALA 100 mg/kg/d): 10^2 pfu
- HCMV Titer, OS (day 6, PALA 100 mg/kg/d): 10^3 pfu
- HCMV recovery frequency (day 6, PALA 100 mg/kg/d): 3/4
- Optic neuritis score (ONH) (day 6, PALA 100 mg/kg/d): 4.0
- Vitreo-retinal score (day 6, PALA 100 mg/kg/d): 4.0
- Average HCMV titer [5]: 10^2 pfu
- HCMV Recovered, OD [5]: +
- HCMV Recovered, OS [5]: +
- HCMV Titer, OD [5]: 10^2 pfu
- HCMV recovery frequency [5]: 4/4
- Optic neuritis score (ONH) [5]: 1.0 and 0.5
- Vitreo-retinal score [5]: 0.75 and 0.6
- Optic neuritis score (ONH) [6]: 0
- Vitreo-retinal score [6]: 5.0
- Optic neuritis score (ONH) (day 7, PALA 100 mg/kg/d): 2.5 and 4.0
- Vitreo-retinal score (day 7, PALA 100 mg/kg/d): 3.25 and 4.25
- Vitreo-retinal score (day 7, PALA 50 or DHPG 10 mg/kg/d): 0.4
- HCMV Recovered, OD [7]: -
- HCMV Recovered, OS [7]: -
- HCMV Recovered, OD (day 12, PALA 100 mg/kg/d): -
- HCMV Recovered, OS (day 12, PALA 100 mg/kg/d): -
- HCMV Recovered, OD [8]: -
- HCMV Recovered, OS [8]: -
